Experimental data reported in patent US6953570B2, “Porphyrins with enhanced multi-photon absorption cross-sections for photodynamic therapy” (Montana State University, priority 2001, dated 2005).

Assay: Singlet oxygen 1Δg→3Σg luminescence after two-photon excitation of the photosensitizer
Assay type: physicochemical
Conditions: air-saturated toluene solution, Ti:sapphire regenerative amplifier output 780 nm
Experimental: As illustrated in FIG. 4(a), the ^1Δg→^3Σg luminescence spectra of molecular oxygen in an air-saturated toluene solution of compound I after both one- and two-photon excitation were measured. The one-photon excitation is represented by the dashed line and the two-photon excitation is shown by the solid line. Both spectra are normalized to unity. For one photon excitation, second harmonics of a Ti:sapphire regenerative amplifier, 390 nm, with an average power intensity of 0.5 W/cm^2 were used, while for two-photon excitation, the output of a Ti:sapphire regenerative amplifier, 780 nm, with an average power intensity of 15 W/cm^2 was used. In both cases, the laser beam was slightly focused into a 1-cm cell to give a cylindrical irradiated volume of ˜1.5 mm diameter. The singlet oxygen luminescence spectrum was measured with a nitrogen-cooled Ge detector coupled with Jobin-Yvon monochromator and a lock-in amplifier.
FIG. 4(b) graphs the dependence of the ^1Δg→^3Σg luminescence intensity (lΔ) on the average illumination intensity, P, of molecular oxygen in an air-saturated toluene solution of compound I after two-photon excitation. The raw experimental data are shown by black squares, with the best power-law fit, lΔ=aP^n with n=2.1±0.1 shown by the dotted line.

For Clc1cccc(Cl)c1-c1c2nc(cc3ccc([nH]3)c(-c3ccc(C=Cc4ccc(N(c5ccccc5)c5ccccc5)cc4)cc3)c3nc(cc4ccc1[nH]4)C=C3)C=C2 [Compound I, 5-[4′″-(diphenylamino)-4″-stilbenyl]-15-[2′,6′-dichlorophenyl]-21H, 23H-porphyrin], the “exponent n of best power-law fit lΔ=aP^n (1Δg→3Σg luminescence intensity lΔ versus average illumination intensity P)” value was 2.1±0.1.
